The conditions of series [1]: after oral administration; corresponding tissue; cited from earlier work.
Series [2] has as its system neuropathic pain. Description: Earlier oral medication of the case patients (case histories). To be noted: case history of the individual patient.
Series [3] deals with neuropathic pain. To be noted: 21% for placebo; cited from earlier work.

Entries after “also recorded” stand apart in the source; their conditions may differ.

With `O=C(O)Cc1ccccc1Nc1c(Cl)cccc1Cl` [diclofenac], in series [1], the “Cmax of diclofenac in muscles” value is listed as 1160 ng/mL. Take `NCC1(CC(=O)O)CCCCC1` [gabapentin]: the “side effects of earlier oral medication” value in the series with neuropathic pain [2] is given as “too much side effects”. For the same compound, in the series with neuropathic pain [3], the “patients who achieved 50% or more pain relief” value is “about 35%”. In the case of `CC(C)C[C@H](CN)CC(=O)O` [pregabalin], in the series with neuropathic pain [2], the “pain relieving effect of earlier oral medication (words)” value (“pain relieving effect” below) was “without sufficient pain reduction; also recorded: had a pain reducing effect”; the “side effects of earlier oral medication” value is “anxiety and depression; also recorded: too much side effects”. Besides, in the series on neuropathic pain [2] (listed as Pregabalin), the “pain relieving effect” value is on record as “did not have any effect”. As for `COc1ccc(C(CN(C)C)C2(O)CCCCC2)cc1` (centres unmarked) [venlafaxine], the “side effects of earlier oral medication” value in the series on neuropathic pain [2] is given as “induced nausea”. As for `CN(C)CCC=C1c2ccccc2CCc2ccccc21` [Amitriptyline], the “pain relieving effect” value with neuropathic pain [2] is recorded as “did not have any pain relieving effect”.
